Like-named read-outs stand apart in the source and are kept apart here.

Eleven compounds from patent publication US20230158025A1 (UNIVERSITY OF UTAH RESEARCH FOUNDATION, priority 2020, published 2023) can be followed below.

A short description of data set [1]: rat microsomal stability (RLM). The conditions noted are these: microsomal half-life.
Data set [2] is described as follows: aqueous kinetic solubility.
A further data set concerns the target recombinant mouse GALK1 (Mus musculus, UniProt Q9R0N0). In words: mGALK1 biochemical activity assay (Kinase-Glo Plus, ATP depletion). The procedure, abridged: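 Recombinant GALK1 (5 nM) with 100 μM galactose; GALK1 turnover read as ATP depletion by Kinase-Glo Plus luminescence. Reaction ran 1 h at room temperature before detection reagent was added.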
In general terms: Kinase-Glo reads ATP consumption through a luciferase reaction.

The target in a further data set is recombinant human GALK1 (Homo sapiens, UniProt P51570). In words: hGALK1 biochemical activity assay (Kinase-Glo Plus, ATP depletion). The procedure, abridged: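 Recombinant human or mouse GALK1 (5 nM, with 100 μM galactose, in the added enzyme solution) was run with ATP (35 μM in the substrate solution) in HEPES pH 8.0 buffer. Compounds were tested at 11 1/3-step concentrations from 57.4 μM to 0.97 nM. After 1 h at room temperature, remaining ATP was read by Kinase-Glo Plus luminescence.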

[3] abbreviates: Tables 2-15, 35 μM ATP, 100 μM galactose, 1 h, bracketed figure after some values is undefined and not reported, read-out: mGALK IC50.
The mark [4] stands for this setting: recombinant mouse GALK1, Kinase-Glo Plus ATP depletion, read-out: mGALK.
Where [5] appears, read: Tables 2-15, 35 μM ATP, 100 μM galactose, 1 h, bracketed figure after some values (e.g. −1.2) is undefined and not reported, read-out: hGALK IC50.
[6] abbreviates: recombinant human GALK1, Kinase-Glo Plus ATP depletion, read-out: hGALK.

recombinant mouse GALK1, sequence (Q9R0N0 whole entry): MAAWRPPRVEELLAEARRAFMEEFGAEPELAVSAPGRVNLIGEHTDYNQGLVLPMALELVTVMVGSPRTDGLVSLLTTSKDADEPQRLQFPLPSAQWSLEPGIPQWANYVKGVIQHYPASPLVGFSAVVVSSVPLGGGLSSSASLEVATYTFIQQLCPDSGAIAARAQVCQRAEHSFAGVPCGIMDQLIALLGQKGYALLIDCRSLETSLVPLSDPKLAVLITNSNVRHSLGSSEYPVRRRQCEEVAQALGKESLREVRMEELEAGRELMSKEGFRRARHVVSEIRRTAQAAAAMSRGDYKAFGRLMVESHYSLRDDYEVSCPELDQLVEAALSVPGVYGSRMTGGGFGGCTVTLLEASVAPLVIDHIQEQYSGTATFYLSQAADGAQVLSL
recombinant human GALK1, sequence (P51570 whole entry): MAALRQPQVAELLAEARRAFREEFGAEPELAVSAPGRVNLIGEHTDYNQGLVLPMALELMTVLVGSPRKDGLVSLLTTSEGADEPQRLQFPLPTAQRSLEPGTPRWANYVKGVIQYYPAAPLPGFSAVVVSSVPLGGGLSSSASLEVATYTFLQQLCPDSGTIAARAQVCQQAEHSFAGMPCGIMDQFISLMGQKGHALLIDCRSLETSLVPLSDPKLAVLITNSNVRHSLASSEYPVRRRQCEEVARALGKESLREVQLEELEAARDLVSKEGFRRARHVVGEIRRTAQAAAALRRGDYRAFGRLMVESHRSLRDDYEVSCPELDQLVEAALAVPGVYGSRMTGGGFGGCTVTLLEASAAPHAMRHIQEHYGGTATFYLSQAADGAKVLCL

Regarding `CC1=C(C(=O)Nc2cc(C(=O)O)ccn2)C(c2ccc(C(F)(F)F)cc2Cl)N=C(Nc2nc3ccc(F)cc3o2)N1` (stereo not shown) [Compound 61, 2-(4-(2-chloro-4-(trifluoromethyl)phenyl)-2-((6-fluorobenzo[d]oxazol-2-yl)amino)-6-methyl-1,4-dihydropyrimidine-5-carboxamido)isonicotinic acid], in the data set “PAMPA permeability”, the “Perm. (1 × 10^−6 cm/sec)” value is reported as <1 1 × 10^−6 cm/sec. For the same compound, the “Metab. Stabil. (m)” value in data set [1] is recorded as more than 30 m. Moreover, the “Sol.” value in data set [2] came out at 19.4 µg/mL. Also, the IC50 came to 10.9 µM on recombinant mouse GALK1 (setting [3]), 10.9 µM on recombinant mouse GALK1 (setting [4]), 1.53 µM on recombinant human GALK1 (setting [5]) and 1.53 µM on recombinant human GALK1 (setting [6]).
As for `CC1=C(C(=O)Nc2cc(C(=O)O)ccn2)C(c2ccc(Br)cc2Cl)N=C(Nc2nc3ccc(F)cc3o2)N1` (stereo not shown) [Compound 62, 2-(4-(4-bromo-2-chlorophenyl)-2-((6-fluorobenzo[d]oxazol-2-yl)amino)-6-methyl-1,4-dihydropyrimidine-5-carboxamido)isonicotinic acid], the “Perm. (1 × 10^−6 cm/sec)” value in “PAMPA permeability” is <1.7 1 × 10^−6 cm/sec. Also, the “Metab. Stabil. (m)” value in data set [1] was more than 30 m. The “Sol.” value in data set [2] is 2.4 µg/mL. The IC50 on recombinant mouse GALK1 (setting [3]) is 3.85 µM; on recombinant mouse GALK1 (setting [4]), 3.85 µM; at recombinant human GALK1 (setting [5]), 1.09 µM; at recombinant human GALK1 (setting [6]) it was 1.09 µM.
As to `CC1=C(C(=O)Nc2cc(C(=O)O)ccn2)C(c2cccc([N+](=O)[O-])c2Cl)N=C(Nc2nc3ccc(F)cc3o2)N1` (stereo not shown) [Compound 63, 2-(4-(2-chloro-3-nitrophenyl)-2-((6-fluorobenzo[d]oxazol-2-yl)amino)-6-methyl-1,4-dihydropyrimidine-5-carboxamido)isonicotinic acid], the “Perm. (1 × 10^−6 cm/sec)” value in “PAMPA permeability” is given as <1 1 × 10^−6 cm/sec. Besides, the “Metab. Stabil. (m)” value in data set [1] is reported as more than 30 m. Also, in data set [2], the “Sol.” value was more than 84 µg/mL. In addition, the IC50 was 34.3 µM at recombinant mouse GALK1 (setting [4]) and 19.3 µM at recombinant human GALK1 (setting [6]).
`CC1=C(C(=O)Nc2cc(C(=O)O)ccn2)C(c2cccc(N)c2Cl)N=C(Nc2nc3ccc(F)cc3o2)N1` (stereo not shown) [Compound 64, 2-(4-(3-amino-2-chlorophenyl)-2-((6-fluorobenzo[d]oxazol-2-yl)amino)-6-methyl-1,4-dihydropyrimidine-5-carboxamido)isonicotinic acid]: in “PAMPA permeability”, the “Perm. (1 × 10^−6 cm/sec)” value was <1 1 × 10^−6 cm/sec. In data set [1], the “Metab. Stabil. (m)” value is more than 30 m. Besides, the “Sol.” value in data set [2] was more than 79 µg/mL. The IC50 at recombinant mouse GALK1 (setting [3]) was 17.2 µM; on recombinant mouse GALK1 (setting [4]), 17.2 µM; at recombinant human GALK1 (setting [5]), 3.06 µM; on recombinant human GALK1 (setting [6]), 3.06 µM.
In the case of `CC1=C(C(=O)Nc2cc(C(=O)O)ccn2)C(c2ccc(C#N)cc2Cl)N=C(Nc2nc3ccc(F)cc3o2)N1` (stereo not shown) [Compound 66, 2-(4-(2-chloro-4-cyanophenyl)-2-((6-fluorobenzo[d]oxazol-2-yl)amino)-6-methyl-1,4-dihydropyrimidine-5-carboxamido)isonicotinic acid], the “Perm. (1 × 10^−6 cm/sec)” value in “PAMPA permeability” is <1 1 × 10^−6 cm/sec. In addition, in data set [1], the “Metab. Stabil. (m)” value is reported as more than 30 m. In data set [2], the “Sol.” value is more than 81 µg/mL. For the same compound, the IC50 at recombinant mouse GALK1 (setting [3]) was determined as 3.85 µM; on recombinant mouse GALK1 (setting [4]) it was 3.85 µM; at recombinant human GALK1 (setting [5]), 0.61 µM; on recombinant human GALK1 (setting [6]) it was 0.61 µM.
As to `CCOc1ccc(C2N=C(Nc3nc4ccc(F)cc4o3)NC(C)=C2C(=O)Nc2cc(C(=O)O)ccn2)c(Cl)c1` (stereo not shown) [Compound 67, 2-(4-(2-chloro-4-ethoxyphenyl)-2-((6-fluorobenzo[d]oxazol-2-yl)amino)-6-methyl-1,4-dihydropyrimidine-5-carboxamido)isonicotinic acid], the “Perm. (1 × 10^−6 cm/sec)” value in the data set “PAMPA permeability” is listed as <1 1 × 10^−6 cm/sec. The “Metab. Stabil. (m)” value in data set [1] is recorded as more than 30 m. Further, the “Sol.” value in data set [2] amounted to 11.3 µg/mL. Besides, the IC50 stood at 3.85 µM at recombinant mouse GALK1 (setting [3]), 3.85 µM on recombinant mouse GALK1 (setting [4]), 0.69 µM at recombinant human GALK1 (setting [5]) and 0.69 µM at recombinant human GALK1 (setting [6]).
On to `CC1=C(C(=O)Nc2cc(C(=O)O)ccn2)C(c2ccc(-c3ccc(C(F)(F)F)cc3)cc2Cl)N=C(Nc2nc3ccc(F)cc3o2)N1` (stereo not shown) [Compound 68, 2-(4-(3-chloro-4′-(trifluoromethyl)-[1,1′-biphenyl]-4-yl)-2-((6-fluorobenzo[d]oxazol-2-yl)amino)-6-methyl-1,4-dihydropyrimidine-5-carboxamido)isonicotinic acid], for which the “Perm. (1 × 10^−6 cm/sec)” value in “PAMPA permeability” is 6.6 1 × 10^−6 cm/sec. Moreover, in data set [1], the “Metab. Stabil. (m)” value is on record as more than 30 m. In addition, the “Sol.” value in data set [2] came out at 8.1 µg/mL. The IC50 on recombinant mouse GALK1 (setting [3]) stood at 21.7 µM; at recombinant mouse GALK1 (setting [4]), 21.7 µM; on recombinant human GALK1 (setting [5]), 7.69 µM; on recombinant human GALK1 (setting [6]), 7.69 µM.
With `CC1=C(C(=O)Nc2cc(C(=O)O)ccn2)C(c2ccc(-c3ccc(C)nc3)cc2Cl)N=C(Nc2nc3ccc(F)cc3o2)N1` (stereo not shown) [Compound 69, 2-(4-(2-chloro-4-(6-methylpyridin-3-yl)phenyl)-2-((6-fluorobenzo[d]oxazol-2-yl)amino)-6-methyl-1,4-dihydropyrimidine-5-carboxamido)isonicotinic acid], in the data set “PAMPA permeability”, the “Perm. (1 × 10^−6 cm/sec)” value is <1 1 × 10^−6 cm/sec. The “Metab. Stabil. (m)” value in data set [1] was more than 30 m. The “Sol.” value in data set [2] is more than 90 µg/mL. Moreover, the IC50 on recombinant mouse GALK1 (setting [3]) was found to be 1.22 µM; at recombinant mouse GALK1 (setting [4]) it was 1.22 µM; on recombinant human GALK1 (setting [6]), 0.34 µM.
Consider `CC1=C(C(=O)Nc2cc(C(=O)O)ccn2)C(c2ccc(-c3ccc(C(F)(F)F)nc3)cc2Cl)N=C(Nc2nc3ccc(F)cc3o2)N1` (stereo not shown) [Compound 70, 2-(4-(2-chloro-4-(6-(trifluoromethyl)pyridin-3-yl)phenyl)-2-((6-fluorobenzo[d]oxazol-2-yl)amino)-6-methyl-1,4-dihydropyrimidine-5-carboxamido)isonicotinic acid], for which, in the data set “PAMPA permeability”, the “Perm. (1 × 10^−6 cm/sec)” value is reported as <1 1 × 10^−6 cm/sec. For the same compound, the “Metab. Stabil. (m)” value in data set [1] is more than 30 m. Further, the “Sol.” value in data set [2] was found to be 28.6 µg/mL. Besides, the IC50 at recombinant mouse GALK1 (setting [3]) worked out at 3.85 µM; on recombinant mouse GALK1 (setting [4]) it was 3.85 µM; at recombinant human GALK1 (setting [5]), 1.21 µM; on recombinant human GALK1 (setting [6]) it was 1.21 µM.
`CC1=C(C(=O)Nc2cc(C(=O)O)ccn2)C(c2ccc(-c3cnc(C)nc3)cc2Cl)N=C(Nc2nc3ccc(F)cc3o2)N1` (stereo not shown) [Compound 71, 2-(4-(2-chloro-4-(2-methylpyrimidin-5-yl)phenyl)-2-((6-fluorobenzo[d]oxazol-2-yl)amino)-6-methyl-1,4-dihydropyrimidine-5-carboxamido)isonicotinic acid]: in “PAMPA permeability”, the “Perm. (1 × 10^−6 cm/sec)” value is recorded as <1 1 × 10^−6 cm/sec. Moreover, the “Metab. Stabil. (m)” value in data set [1] is recorded as more than 30 m. Further, in data set [2], the “Sol.” value is more than 90 µg/mL. For the same compound, the figures for the IC50 on recombinant mouse GALK1 (setting [3]), on recombinant mouse GALK1 (setting [4]) and at recombinant human GALK1 (setting [6]) were 0.69 µM, 0.69 µM and 0.11 µM, respectively.
Consider `CC1=C(C(=O)Nc2cc(C(=O)O)ccn2)C(c2cc(C(=O)O)ccc2Cl)N=C(Nc2nc3ccc(F)cc3o2)N1` (stereo not shown) [Compound 73, 2-(4-(5-carboxy-2-chlorophenyl)-2-((6-fluorobenzo[d]oxazol-2-yl)amino)-6-methyl-1,4-dihydropyrimidine-5-carboxamido)isonicotinic acid], for which the “Perm. (1 × 10^−6 cm/sec)” value in the data set “PAMPA permeability” is 2.85 1 × 10^−6 cm/sec. Besides, the “Metab. Stabil. (m)” value in data set [1] is on record as more than 30 m. For the same compound, the “Sol.” value in data set [2] was more than 83 µg/mL. The IC50 on recombinant mouse GALK1 (setting [3]) stood at 12.2 µM; at recombinant mouse GALK1 (setting [4]) it was 12.2 µM; at recombinant human GALK1 (setting [5]) it was 1.72 µM; on recombinant human GALK1 (setting [6]), 1.72 µM.
